Results as given in US5622948A, “Pyrrole pyridazine and pyridazinone anti-inflammatory agents” (Syntex (U.S.A.) Inc., priority 1994, dated 1997).
pIC50: −log10 of the molar value.

Columns and labels:
[1] = target: COX I (Homo sapiens, UniProt P23219); test: radiometric assay, COX I inhibition (human recombinant, baculovirus expressed, partially purified); type: biochemical; design: A 2 Kb fragment containing the coding region of COX I; made in house; host or cells: Sf9 insect cells, baculovirus (cDNA from Oxford Biomedical Research); details: radiometric assay, human recombinant baculovirus expressed enzyme; read-out: COX I IC50 (Table 2)
COX I, sequence (P23219 24-599): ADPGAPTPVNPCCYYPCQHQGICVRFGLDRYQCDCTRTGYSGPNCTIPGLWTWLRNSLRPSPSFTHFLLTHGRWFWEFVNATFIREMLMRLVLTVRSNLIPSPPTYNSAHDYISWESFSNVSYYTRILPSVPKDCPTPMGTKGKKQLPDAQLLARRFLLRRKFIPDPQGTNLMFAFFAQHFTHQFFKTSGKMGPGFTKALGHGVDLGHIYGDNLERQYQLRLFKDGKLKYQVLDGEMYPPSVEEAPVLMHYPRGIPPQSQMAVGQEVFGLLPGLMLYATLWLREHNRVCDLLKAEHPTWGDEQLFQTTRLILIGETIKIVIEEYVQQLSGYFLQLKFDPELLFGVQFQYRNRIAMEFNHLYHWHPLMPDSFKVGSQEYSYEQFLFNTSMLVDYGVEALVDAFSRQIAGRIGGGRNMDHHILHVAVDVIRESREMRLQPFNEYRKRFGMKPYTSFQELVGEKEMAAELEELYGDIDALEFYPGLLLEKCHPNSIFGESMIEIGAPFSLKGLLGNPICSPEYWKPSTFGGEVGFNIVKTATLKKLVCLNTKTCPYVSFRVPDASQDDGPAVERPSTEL
Method: (§1) Human prostaglandin G/H synthase I and II ("COX I" and "COX II") were expressed in the baculovirus expression system and purified to high levels.
(§2) As described above, human recombinant COX I and COX II were cloned and expressed in a baculovirus system. Partially purified COX I and COX II enzymes were used for screening compounds for their ability to inhibit COX I and COX II activity, as described below.
(§3) Compound (16), in 2 μl DMSO, and control samples (carrier vehicles only) were mixed with COX I or COX II samples (e.g. fractions from the chromatography columns) in polypropylene tubes and preincubated with 2 mM phenol for 5 minutes and then with 1 μM hematin for an additional 5 minutes. The 150 μl reaction mixture consisted of 50 mM Tris --HCl, pH 7.9, 2 mM EDTA, 10% glycerol, 200 μM phenol, 1 μM hematin, 1-25 μl sample and 20 μM 1-[^14 C] arachidonate (80.000-100.000 cpm/tube). After 45 seconds at room temperature, the reaction was terminated by adding 200 μl of 2N HCl and 750 μl water. An aliquot (950 μl) of the reaction mixture was loaded onto a 1 ml C~ Sep-Pak (J. T. Baker, Phillipsburg, N.J.) which had been previously washed with 2-3 ml methanol and equilibrated with 5-6 ml distilled water. Oxygenated products were quantitatively eluted with 3 ml of acetonitrile, H2 O and acetic acid (50:50:0.1, v/v) and the radioactivity in the eluate determined in a scintillation counter.
(§4) Human recombinant 10 min incubation with Compound (16)
(§5) baculovirus 45 sec incubation with 20 μM AA
(§6) partially purified Separation of radioactive products

[2] = target: T1, COX II (Homo sapiens, UniProt P35354); test: radiometric assay, COX II inhibition (human recombinant, baculovirus expressed, partially purified); type: biochemical; design: A 1.8 Kb DNA fragment containing the coding region of human COX II was generated by PCR; made in house; host or cells: Sf9 insect cells, baculovirus; details: radiometric assay, human recombinant baculovirus expressed enzyme; read-out: COX II IC50 (Table 2)
T1 sequence (P35354 18-604): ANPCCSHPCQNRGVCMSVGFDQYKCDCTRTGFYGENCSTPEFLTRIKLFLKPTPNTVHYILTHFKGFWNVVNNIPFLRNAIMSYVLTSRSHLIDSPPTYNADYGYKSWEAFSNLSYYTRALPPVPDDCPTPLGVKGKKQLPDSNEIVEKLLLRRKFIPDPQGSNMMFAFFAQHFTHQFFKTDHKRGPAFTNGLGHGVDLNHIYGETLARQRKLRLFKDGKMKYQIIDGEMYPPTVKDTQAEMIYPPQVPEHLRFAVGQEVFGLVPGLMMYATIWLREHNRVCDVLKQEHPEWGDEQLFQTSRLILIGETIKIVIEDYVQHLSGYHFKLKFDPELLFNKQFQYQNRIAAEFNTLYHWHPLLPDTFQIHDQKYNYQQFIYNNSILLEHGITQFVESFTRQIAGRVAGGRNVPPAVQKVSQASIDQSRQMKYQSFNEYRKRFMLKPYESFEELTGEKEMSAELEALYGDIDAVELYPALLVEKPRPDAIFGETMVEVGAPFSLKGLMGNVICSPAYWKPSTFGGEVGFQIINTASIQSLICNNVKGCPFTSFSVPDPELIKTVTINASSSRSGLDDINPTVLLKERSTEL
Method: as §1, §2, §3, §4, §5, §6

| Molecule | pIC50 [1] | pIC50 [2] |
| --- | --- | --- |
| 6-(5-benzoyl-3-chloro-4-methyl-1H-pyrrol-2-ylmethyl)-2H-pyridazin-3-one [Compound 89] | 5.09 | 5.64 |
| Cc1cc(C(C#N)c2ccc(=O)[nH]n2)n(C)c1C(=O)c1ccc(Cl)cc1 (stereo not shown) [Compound 9, [5-(4-chloro-benzoyl)-1,4-dimethyl-1H-pyrrol-2-yl]-(6-oxo-1,6-dihydro-pyridazin-3-yl)acetonitrile] | < 4.00 | 6.20 |
| Cc1cc(C(C)c2ccc(=O)[nH]n2)n(C)c1C(=O)c1ccc(Cl)cc1 (stereo not shown) [Compound 18, 6-{1-[5-(4-chloro-benzoyl)-1,4-dimethyl-1H-pyrrol-2-yl]-ethyl}-2H-pyridazin-3-one] | 4.82 | 5.82 |
| Cc1c(Cl)c(Cc2ccc(=O)[nH]n2)n(C)c1C(=O)c1ccc(Cl)cc1 [Compound 24, 6-[3-chloro-5-(4-chloro-benzoyl)-1,4-dimethyl-1H-pyrrol-2-ylmethyl]-2H-pyridazin-3-one] | 3.36 | 6.15 |
| Cc1c(Br)c(Cc2ccc(=O)[nH]n2)n(C)c1C(=O)c1ccc(Cl)cc1 [Compound 25, 6-[3-bromo-5-(4-chloro-benzoyl)-1,4-dimethyl-1H-pyrrol-2-ylmethyl]-2H-pyridazin-3-one] | 3.56 | 5.74 |
| Cc1ccc(C(=O)c2c(C)cc(Cc3ccc(=O)[nH]n3)n2C)cc1 [Compound 30, 6-[1,4-dimethyl-5-(4-methyl-benzoyl)-1H-pyrrol-2-ylmethyl]-2H-pyridazin-3-one] | 4.40 | 6.30 |
| COc1ccc(C(=O)c2c(C)cc(Cc3ccc(=O)[nH]n3)n2C)cc1 [Compound 31, 6-[1,4-dimethyl-5-(4-methoxy-benzoyl)-1-H-pyrrol-2-ylmethyl]-2H-pyridazin-3-one] | 4.46 | 6.70 |
| Cc1cc(Cc2ccc(=O)[nH]n2)n(C)c1C(=O)c1ccccc1 [Compound 32, 6-[5-benzoyl-1,4-dimethyl-1H-pyrrol-2-ylmethyl]-2H-pyridazin-3-one] | 4.57 | 5.82 |
| C=Cc1ccc(C(=O)c2c(C)cc(Cc3ccc(=O)[nH]n3)n2C)cc1 [Compound 33, 6-[1,4-dimethyl-5-(4-vinyl-benzoyl)-1H-pyrrol-2-ylmethyl]-2H-pyridazin-3-one] | 4.50 | 6.36 |
| Cc1cc(Cc2ccc(=O)[nH]n2)n(C)c1C(=O)c1ccc(Br)cc1 [Compound 35, 6-[5-(4-bromo-benzoyl)-1,4-dimethyl-1H-pyrrol-2-ylmethyl]-2H-pyridazin-3-one] | 4.07 | 7.00 |
| CCc1ccc(C(=O)c2c(C)cc(Cc3ccc(=O)[nH]n3)n2C)cc1 [Compound 36, 6-[1,4-dimethyl-5-(4-ethyl-benzoyl)-1H-pyrrol-2-ylmethyl]-2H-pyridazin-3-one] | 4.42 | 6.40 |
| Cn1c(Cc2ccc(=O)[nH]n2)ccc1C(=O)c1ccc(C2CC2)cc1 [Compound 42, 6-[5-(4-cyclopropyl-benzoyl)-1-methyl-1H-pyrrol-2-ylmethyl]-2H-pyridazin-3-one] | 4.09 | 6.14 |
| CSc1ccc(C(=O)c2ccc(Cc3ccc(=O)[nH]n3)n2C)cc1 [Compound 43, 6-[1-methyl-5-(4-methylthio-benzoyl)-1H-pyrrol-2-ylmethyl]-2H-pyridazin-3-one] | 4.64 | 6.52 |
| CCc1ccc(C(=O)c2ccc(Cc3ccc(=O)[nH]n3)n2C)cc1 [Compound 46, 6-[5-(4-ethyl-benzoyl)-1-methyl-1H-pyrrol-2-ylmethyl]-2H-pyridazin-3-one] | < 4.00 | 5.14 |
| COc1ccc(C(=O)c2ccc(Cc3ccc(=O)[nH]n3)n2C)cc1 [Compound 53, 6-[5-(4-methoxy-benzoyl)-1-methyl-1H-pyrrol-2-ylmethyl]-2H-pyridazin-3-one] | 3.38 | 6.00 |
| C=Cc1ccc(C(=O)c2ccc(Cc3ccc(=O)[nH]n3)n2C)cc1 [Compound 54, 6-[1-methyl-5-(4-vinyl-benzoyl)-1H-pyrrol-2-ylmethyl]-2H-pyridazin-3-one] | 3.72 | 6.36 |
| Cn1c(Cc2ccc(=O)[nH]n2)ccc1C(=O)c1ccc(Br)cc1 [Compound 57, 6-[5-(4-bromo-benzoyl)-1-methyl-1H-pyrrol-2-ylmethyl]-2H-pyridazin-3-one] | 3.15 | 5.34 |
| Cn1c(Cc2ccc(=O)[nH]n2)ccc1C(=O)c1cccs1 [Compound 62, 6-[1-methyl-5-(thienyl-2-carbonyl)-1H-pyrrol-2-ylmethyl]-2H-pyridazin-3-one] | 3.85 | 5.15 |
| Cc1ccc(C(=O)c2c(Cl)cc(Cc3ccc(=O)[nH]n3)n2C)cc1 [Compound 80, 6-[4-chloro-1-methyl-5-(4-methyl-benzoyl)-1H-pyrrol-2-ylmethyl]-2H-pyridazin-3-one] | ≤ 3.00 | 6.15 |
| Cn1c(Cc2ccc(=O)[nH]n2)cc(Cl)c1C(=O)c1ccc(Cl)cc1 [Compound 81, 6-[4-chloro-5-(4-chloro-benzoyl)-1-methyl-1H-pyrrol-2-ylmethyl]-2H-pyridazin-3-one] | < 3.52 | 6.36 |
| COc1ccc(C(=O)c2c(Cl)cc(Cc3ccc(=O)[nH]n3)n2C)cc1 [Compound 82, 6-[4-chloro-5-(4-methoxy-benzoyl)-1-methyl-1H-pyrrol-2-ylmethyl]-2H-pyridazin-3-one] | 4.69 | 6.09 |
| Cc1ccc(C(=O)c2cc(Cl)c(Cc3ccc(=O)[nH]n3)n2C)cc1 [Compound 87, 6-[3-chloro-1-methyl-5-(4-methyl-benzoyl)-1H-pyrrol-2-ylmethyl]-2H-pyridazin-3-one] | < 3.00 | 6.05 |
| COc1ccc(C(=O)c2cc(Cl)c(Cc3ccc(=O)[nH]n3)n2C)cc1 [Compound 88, 6-[3-chloro-5-(4-methoxy-benzoyl)-1-methyl-1H-pyrrol-2-ylmethyl]-2H-pyridazin-3-one] | 4.00 | 6.26 |
| Cc1ccc(C(=O)c2ccc(C(C)c3ccc(=O)[nH]n3)n2C)cc1 (stereo not shown) [Compound 95, 6-{1-[1-methyl-5-(4-methyl-benzoyl)-1H-pyrrol-2-yl]-ethyl}-2H-pyridazin-3-one] | 3.85 | 5.89 |
| Cc1ccc(C(=O)c2ccc(Cc3ccc(=O)[nH]n3)n2C)cc1 [Compound 100, 6-[1-methyl-5-(4-methyl-benzoyl)-1H-pyrrol-2-ylmethyl]-2H-pyridazin-3-one] | 3.52 | 5.82 |
| Cc1ccc(C(=O)c2ccc(CC3=NNC(=O)CC3)n2C)cc1 [Compound 102, 6-[1-methyl-5-(4-methyl-benzoyl)-1H-pyrrol-2-ylmethyl]-4,5-dihydro-2H-pyridazin-3-one] | 3.59 | 5.51 |
| CSc1cc(Cc2ccc(=O)[nH]n2)n(C)c1C(=O)c1ccc(C)cc1 [Compound 107, 6-(1-methyl-5-(4-methyl-benzoyl)-4-methylthio-1H-pyrrol-2-ylmethyl)-2H-pyridazin-3-one] | 4.68 | 5.64 |
| CC(=O)n1nc(Cc2cc(C)c(C(=O)c3ccc(Cl)cc3)n2C)ccc1=O [Compound 114, 2-acetyl-6-[5-(4-chloro-benzoyl)-1,4,-dimethyl-1H-pyrrol-2-ylmethyl]-2H-pyridazin-3-one] | 4.09 | 6.18 |
| COC(=O)Cn1nc(Cc2cc(C)c(C(=O)c3ccc(Cl)cc3)n2C)ccc1=O [Compound 116, {3-[5-(4-chloro-benzoyl)-1,4,-dimethyl-1H-pyrrol-2-ylmethyl]-6-oxo-6H-pyridazin-1-yl}-acetic acid methyl ester] | 6.04 | 6.74 |
